Experimental data published in patent US10285382B2 (priority 2017, dated 2019).
Like-named read-outs stand apart in the source and are kept apart here.

Tested on: Influenza A (H1N1)
Method: Glass slides (1″×3″) are ethanol-sanitized and autoclaved prior to testing. The slides (carriers) are placed into sterile plastic petri dishes until use. Aliquots (0.010 ml) of diluted stock Influenza A (H1N1) are aseptically spread over a 1″×1″ square area of the carrier slide to prepare a virus film.
Virus Control carriers are placed into an adjacent modular room with the lids removed. One additional glass slide (with no virus film) is also placed into each testing chamber to perform cytotoxicity and neutralization validation controls. Upon closure of the respective study contact times (T=60 min and T=120 min), duplicate carriers are removed from each testing chamber. Duplicate carriers are also removed from the control modular room at each time point. Duplicate time zero carriers are harvested and enumerated promptly by eluting the films with 2 ml of Influenza Infection Medium. Serial dilutions (1:10) are performed and dilutions 10^−1 to 10^−5 are plated in quadruplicate onto Madin-Darby Canine Kidney (MDCK) cell monolayers prepared to suitable confluency. Cell culture assay trays are incubated at 35° C. on an orbital rotator (60 rotations/minute) for 60 minutes to facilitate viral-host adsorption. Trays are removed from incubation, and Influenza infection Media is pipetted into each well (˜1.0 ml). The trays are incubated for 7 days. The assay trays are observed regularly for the presence of cytotoxicity, viral cytopathic effects, and contamination. At the end of 7 days, plates are scored and the Spearman-Karber Method is used to compute viral titers and levels of cytotoxicity.

[1] = Hood Chamber, 60 minutes contact
[2] = Hood Chamber, 120 minutes contact
[3] = Modular Room, 60 minutes contact, DHP 0.6 to 1.0 ppm
[4] = Modular Room, 120 minutes contact, DHP 0.6 to 1.0 ppm

OO [DHP, dry hydrogen peroxide]
% Reduction [1]: 99.8%
Log10 reduction [1]: >=2.62
% Reduction [2]: 98.6%
Log10 reduction [2]: >=1.87
% Reduction [3]: 87%
Log10 reduction [3]: 0.87
% Reduction [4]: 76%
Log10 reduction [4]: 0.62
